Source: PubChem BioAssay AID248 (DTP/NCI, 2004)
Where “and” joins values, the source holds several entries; their conditions need not be identical. Identical values can stand only once. Toxic doses and inconclusive results are not listed. Cut-off read from the data, not from the text of the source: active = T/C of 150% or more; inactive = T/C below 125%.

System: L1210 leukemia ip in BDF1 mice, survival T/C
Test: NCI In Vivo Anticancer Drug Screen. Data for tumor model L1210 Leukemia (intraperitoneal) in B6D2F1 (BDF1) mice
Settings: endpoint: mean survival time, higher = longer survival
Method in brief: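 Tumor was transplanted into mice, which were then dosed with test compound or vehicle alone. Survival was recorded for each group, and the treated figure was expressed relative to the control figure.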

[1] = dose: 100.0 mg/kg/injection, schedule: Q01DX001 (ip), vehicle: Klucel (hydroxypropylcellulose) (HPC)
[2] = dose: 200.0 mg/kg/injection, schedule: Q01DX001 (ip), vehicle: Klucel (hydroxypropylcellulose) (HPC)
[3] = dose: 400.0 mg/kg/injection, schedule: Q01DX001 (ip), vehicle: Klucel (hydroxypropylcellulose) (HPC)
[4] = dose: 100.0 mg/kg/injection, schedule: Q01DX009 (ip), vehicle: Klucel (hydroxypropylcellulose) (HPC)
[5] = dose: 100.0 mg/kg/injection, schedule: Q04DX003 (ip), vehicle: Klucel (hydroxypropylcellulose) (HPC)
[6] = dose: 200.0 mg/kg/injection, schedule: Q01DX009 (ip), vehicle: Klucel (hydroxypropylcellulose) (HPC)
[7] = dose: 200.0 mg/kg/injection, schedule: Q04DX003 (ip), vehicle: Klucel (hydroxypropylcellulose) (HPC)
[8] = dose: 400.0 mg/kg/injection, schedule: Q01DX009 (ip), vehicle: Klucel (hydroxypropylcellulose) (HPC)
[9] = dose: 400.0 mg/kg/injection, schedule: Q04DX003 (ip), vehicle: Klucel (hydroxypropylcellulose) (HPC)
[10] = dose: 100.0 mg/kg/injection, schedule: Q04DX003 (ip), vehicle: saline with Tween-80
[11] = dose: 400.0 mg/kg/injection, schedule: Q04DX003 (ip), vehicle: saline with Tween-80
[12] = dose: 100.0 mg/kg/injection, schedule: Q01DX001 (ip), vehicle: carboxymethylcellulose (CMC)
[13] = dose: 100.0 mg/kg/injection, schedule: Q01DX009 (ip), vehicle: saline

Measured: T/C

COc1cc2c(c(OC)c1OC)-c1ccc(SCc3ccccc3)c(=O)cc1[C@@H](NC(C)=O)CC2
inactive: dose: 6.25 mg/kg/injection, schedule: Q01DX009 (ip), vehicle: Klucel (hydroxypropylcellulose) (HPC) 106 % of control | dose: 8.2 mg/kg/injection, schedule: Q01DX009 (ip), vehicle: Klucel (hydroxypropylcellulose) (HPC) 121 % of control | dose: 12.5 mg/kg/injection, schedule: Q01DX009 (ip), vehicle: Klucel (hydroxypropylcellulose) (HPC) 124 % of control | dose: 18.0 mg/kg/injection, schedule: Q01DX009 (ip), vehicle: Klucel (hydroxypropylcellulose) (HPC) 101 % of control | dose: 25.0 mg/kg/injection, schedule: Q01DX009 (ip), vehicle: Klucel (hydroxypropylcellulose) (HPC) 115 % of control and 92 % of control

Cc1cc(C)c(C2=C(Br)C(=O)C(c3c(C)cc(C)c(C)c3C)=C(Br)C2=O)c(C)c1C
inactive: [1] 98 % of control | [2] 103 % of control | [3] 98 % of control

Cc1cccnc1NC(=S)Nc1ccccc1Cl
inactive: dose: 100.0 mg/kg/injection, schedule: Q04DX002 (ip), vehicle: gum acacia 88 % of control | dose: 200.0 mg/kg/injection, schedule: Q04DX002 (ip), vehicle: gum acacia 98 % of control

CCc1c[n+]([O-])c(C)cc1C(=O)O
inactive: [4] 92 % of control | [5] 97 % of control | [6] 92 % of control | [7] 95 % of control | [8] 92 % of control | [9] 95 % of control

O=C(N/N=C/c1ccc2c(c1)CCC2)c1ccc(S(=O)(=O)O)cc1
inactive: [5] 97 % of control | [7] 104 % of control | [9] 97 % of control

CCC[CH2][Sn]1([CH2]CCC)[O]OC2([O]1)C1CC3CC(C1)CC2C3 (configuration not stated)
inactive: dose: 3.0 mg/kg/injection, schedule: Q04DX002 (ip), vehicle: Klucel (hydroxypropylcellulose) (HPC) 90 % of control | dose: 6.0 mg/kg/injection, schedule: Q04DX002 (ip), vehicle: Klucel (hydroxypropylcellulose) (HPC) 108 % of control | dose: 12.0 mg/kg/injection, schedule: Q04DX002 (ip), vehicle: Klucel (hydroxypropylcellulose) (HPC) 108 % of control | dose: 12.5 mg/kg/injection, schedule: Q04DX002 (ip), vehicle: Klucel (hydroxypropylcellulose) (HPC) 101 % of control

CCCCNC(C)(C)C(SSSC(c1cccs1)C(C)(C)NCCCC)c1cccs1 (configuration not stated)
inactive: dose: 100.0 mg/kg/injection, schedule: Q04DX003 (ip), vehicle: saline sonified 97 % of control | dose: 200.0 mg/kg/injection, schedule: Q04DX003 (ip), vehicle: saline sonified 107 % of control | dose: 400.0 mg/kg/injection, schedule: Q04DX003 (ip), vehicle: saline sonified 100 % of control

Nc1nc(SCCO)nc2nc[nH]c12
inactive: [10] 96 % of control | dose: 200.0 mg/kg/injection, schedule: Q04DX003 (ip), vehicle: saline with Tween-80 95 % of control | [11] 90 % of control

COc1ccc(Br)cc1C1OC(=O)c2c(OC)c(OC)cc(O)c21 (configuration not stated)
inactive: [1] 96 % of control | [2] 98 % of control | [3] 94 % of control

O=C(O)C1Cc2c([nH]c3ccccc23)C(CCCCO)N1 (configuration not stated)
inactive: [12] 96 % of control

COc1cc(OC)c2c(=O)c3ccccc3[nH]c2c1
inactive: [10] 87 % of control | [11] 88 % of control

FC(F)(F)C(F)(C1=NS1(F)C(F)(C(F)(F)F)C(F)(F)F)C(F)(F)F (configuration not stated)
inactive: dose: 100.0 mg/kg/injection, schedule: Q01DX001 (ip), vehicle: acetone 101 % of control | dose: 200.0 mg/kg/injection, schedule: Q01DX001 (ip), vehicle: acetone 95 % of control | dose: 400.0 mg/kg/injection, schedule: Q01DX001 (ip), vehicle: acetone 100 % of control

N#CC1(C#N)C2C=CC(C3CCC=C32)C1(C#N)C#N (configuration not stated)
inactive: dose: 12.5 mg/kg/injection, schedule: Q01DX009 (ip), vehicle: saline with Tween-80 109 % of control | dose: 25.0 mg/kg/injection, schedule: Q01DX009 (ip), vehicle: saline with Tween-80 96 % of control | dose: 25.0 mg/kg/injection, schedule: Q04DX003 (ip), vehicle: saline with Tween-80 104 % of control | dose: 50.0 mg/kg/injection, schedule: Q01DX009 (ip), vehicle: saline with Tween-80 111 % of control | dose: 50.0 mg/kg/injection, schedule: Q04DX003 (ip), vehicle: saline with Tween-80 95 % of control | [10] 93 % of control

CC1CCN(C(=O)CC#N)CC1
inactive: dose: 50.0 mg/kg/injection, schedule: Q01DX009 (ip), vehicle: saline 108 % of control | [13] 112 % of control | dose: 100.0 mg/kg/injection, schedule: Q04DX002 (ip), vehicle: saline 102 % of control | dose: 200.0 mg/kg/injection, schedule: Q04DX002 (ip), vehicle: saline 102 % of control

CCCCNC(=O)Nc1ccc(SC)cc1
inactive: [4] 103 % of control | [5] 94 % of control | [6] 95 % of control | [7] 93 % of control | [8] 88 % of control | [9] 94 % of control

O=[N+]([O-])c1c(Cl)sc(Cl)c1[N+](=O)[O-]
inactive: dose: 3.13 mg/kg/injection, schedule: Q01DX009 (ip), vehicle: saline sonified 98 % of control | dose: 6.25 mg/kg/injection, schedule: Q01DX009 (ip), vehicle: saline sonified 100 % of control | dose: 6.25 mg/kg/injection, schedule: Q04DX003 (ip), vehicle: Klucel (hydroxypropylcellulose) (HPC) 86 % of control | dose: 12.5 mg/kg/injection, schedule: Q01DX009 (ip), vehicle: saline sonified 101 % of control | dose: 12.5 mg/kg/injection, schedule: Q04DX003 (ip), vehicle: Klucel (hydroxypropylcellulose) (HPC) 86 % of control

c1ccc2cc3c(cc2c1)OCO3
inactive: dose: 100.0 mg/kg/injection, schedule: Q04DX002 (ip), vehicle: Klucel (hydroxypropylcellulose) (HPC) 110 % of control | dose: 200.0 mg/kg/injection, schedule: Q04DX002 (ip), vehicle: Klucel (hydroxypropylcellulose) (HPC) 107 % of control | dose: 400.0 mg/kg/injection, schedule: Q04DX002 (ip), vehicle: Klucel (hydroxypropylcellulose) (HPC) 98 % of control

O=[N+]([O-])c1ccc(Oc2ccc(C3N(c4ccccc4)CCN3c3ccccc3)cc2)c([N+](=O)[O-])c1
inactive: dose: 25.0 mg/kg/injection, schedule: Q01DX009 (ip), vehicle: water 91 % of control | dose: 50.0 mg/kg/injection, schedule: Q01DX009 (ip), vehicle: water 91 % of control | dose: 100.0 mg/kg/injection, schedule: Q01DX009 (ip), vehicle: water 86 % of control | dose: 200.0 mg/kg/injection, schedule: Q01DX009 (ip), vehicle: water 91 % of control | dose: 400.0 mg/kg/injection, schedule: Q01DX009 (ip), vehicle: water 86 % of control

O=c1[nH]cc(CCCO)c(=O)[nH]1
inactive: [13] 88 % of control | dose: 100.0 mg/kg/injection, schedule: Q04DX003 (ip), vehicle: saline 103 % of control | dose: 200.0 mg/kg/injection, schedule: Q01DX009 (ip), vehicle: saline 93 % of control | dose: 200.0 mg/kg/injection, schedule: Q04DX003 (ip), vehicle: saline 100 % of control | dose: 400.0 mg/kg/injection, schedule: Q01DX009 (ip), vehicle: saline 88 % of control | dose: 400.0 mg/kg/injection, schedule: Q04DX003 (ip), vehicle: saline 92 % of control

C=CCSc1nc(N)nc2c1nc(SCC=C)n2C1OC(CO)C(O)C1O (configuration not stated)
inactive: dose: 50.0 mg/kg/injection, schedule: Q01DX005 (ip), vehicle: saline 93 % of control | dose: 100.0 mg/kg/injection, schedule: Q01DX005 (ip), vehicle: saline 102 % of control | dose: 200.0 mg/kg/injection, schedule: Q01DX005 (ip), vehicle: saline 100 % of control

CCCCCCCCCCCCCCCC[n+]1ccc(/C=C/c2ccccc2)cc1
inactive: dose: 2.5 mg/kg/injection, schedule: Q01DX001 (ip), vehicle: carboxymethylcellulose (CMC) 116 % of control | dose: 5.0 mg/kg/injection, schedule: Q01DX001 (ip), vehicle: carboxymethylcellulose (CMC) 121 % of control | dose: 10.0 mg/kg/injection, schedule: Q01DX001 (ip), vehicle: carboxymethylcellulose (CMC) 116 % of control

CCCNC(=O)Nc1cccc(Cl)c1
inactive: [12] 102 % of control | dose: 200.0 mg/kg/injection, schedule: Q01DX001 (ip), vehicle: carboxymethylcellulose (CMC) 109 % of control | dose: 400.0 mg/kg/injection, schedule: Q01DX001 (ip), vehicle: carboxymethylcellulose (CMC) 105 % of control
